Experimental data published in patent US20250368648A1, “MULTI-CYCLIC IRAK AND FLT3 INHIBITING COMPOUNDS AND USES THEREOF” (CHILDREN'S HOSPITAL MEDICAL CENTER, priority 2022, published 2025).

Columns and labels:
FLT3 = target: T1, FLT3 (Homo sapiens, UniProt P36888); assay: Reaction Biology NanoBRET target engagement assay, FLT3; type: cell-based; details: HEK-293 cells transfected with Kinase-NanoLuc fusion vector, live cells
T1 sequence (P36888 27-993): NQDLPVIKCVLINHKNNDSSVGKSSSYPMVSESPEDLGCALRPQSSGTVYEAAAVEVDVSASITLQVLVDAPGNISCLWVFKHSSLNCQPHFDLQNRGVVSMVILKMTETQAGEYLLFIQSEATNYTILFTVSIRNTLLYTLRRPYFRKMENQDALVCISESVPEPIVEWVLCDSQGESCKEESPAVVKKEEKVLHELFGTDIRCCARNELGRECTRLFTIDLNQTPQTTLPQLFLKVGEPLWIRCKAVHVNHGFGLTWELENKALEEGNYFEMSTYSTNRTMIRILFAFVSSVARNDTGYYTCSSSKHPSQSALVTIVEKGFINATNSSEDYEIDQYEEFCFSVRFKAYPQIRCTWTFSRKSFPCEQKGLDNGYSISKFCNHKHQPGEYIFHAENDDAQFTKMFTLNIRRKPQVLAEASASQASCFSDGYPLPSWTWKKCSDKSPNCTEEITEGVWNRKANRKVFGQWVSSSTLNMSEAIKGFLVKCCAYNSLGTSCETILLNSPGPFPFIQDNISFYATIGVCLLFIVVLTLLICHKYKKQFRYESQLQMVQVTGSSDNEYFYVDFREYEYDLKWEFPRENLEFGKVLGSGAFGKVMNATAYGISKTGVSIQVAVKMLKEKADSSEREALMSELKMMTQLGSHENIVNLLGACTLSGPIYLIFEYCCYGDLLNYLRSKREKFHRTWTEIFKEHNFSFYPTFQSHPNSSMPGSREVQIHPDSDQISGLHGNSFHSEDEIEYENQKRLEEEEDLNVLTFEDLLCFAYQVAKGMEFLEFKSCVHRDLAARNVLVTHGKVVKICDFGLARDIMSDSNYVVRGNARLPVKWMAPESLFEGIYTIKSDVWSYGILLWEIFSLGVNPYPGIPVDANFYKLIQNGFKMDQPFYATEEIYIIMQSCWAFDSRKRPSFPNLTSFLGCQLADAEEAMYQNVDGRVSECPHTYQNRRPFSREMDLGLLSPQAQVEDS
Description: The NanoBRET assay measures kinase engagement in real time in the context of the intact cell. Unlike the previously described biochemical kinase assay methodologies in Examples 47 and 48, the NanoBRET assay measures the binding and activity characteristics under equilibrium conditions using full-length kinases in the presence of cellular concentrations of ATP in live, uncompromised cells. […] The assay uses a Kinase-NanoLuc® fusion vector expressing a kinase protein to which a luciferase tag has been added, a cell-permeant fluorescent NanoBRET™ tracer, a NanoLuc® substrate, and an extracellular NanoLuc® inhibitor. Upon expression of the luciferase-tagged kinase, cells will produce a strong BRET signal only in the presence of the NanoBRET™ tracer. The extracellular NanoLuc® inhibitor ensures that the BRET signal observed emanates only from live cells. Because the BRET signal has tight distance constraints, addition of the test compound will decrease the BRET signal if the compound competes with the NanoBRET™ tracer for binding to the kinase domain. Under the appropriate tracer conditions established by the manufacturer, quantitative intracellular affinity and relative potency can then be determined using Mass Action model equations.
HEK-293 cells were purchased from ATCC. FuGENEHD Transfection Reagent, Kinase-NanoLucfusion plasmids, Transfection Carrier DNA, NanoBRETTracers and dilution buffer, NanoBRETNano-Glo Substrate, Extracellular NanoLucInhibitor were obtained from Promega.
Assays were conducted following Promega assay protocol with some modifications. HEK-293 Cells were transiently transfected with Kinase-NanoLucFusion Vector DNA by FuGENEHD Transfection Reagent. Testing compounds were delivered into 384 well assay plate by Echo 550 (LabcyteInc, Sunnyvale, CA). Transfected cells were harvested and mixed with NanoBRETTracer Reagent and dispensed into 384 well plates and incubated at 37° C. in 5% CO2 cell culture incubator for 1 hour. The NanoBRETNano-Glo Substrate plus Extracellular NanoLucInhibitor Solution were added into the wells of the assay plate and incubated for 2-3 minutes at room temperature. The donor emission wavelength (460 nm) and acceptor emission wavelength (600 nm) were measured in the EnVisionplate reader. The BRET Ratios were calculated. BRET Ratio=[(Acceptor sample÷Donor sample)−(Acceptor no-tracer control÷Donor no-tracer control)]. The IC50 values of compounds were calculated with Prism GraphPad program.
• 1). Cultivate HEK-293 cells (70-80% confluence) appropriately prior to assay. Trypsinize and collect HEK-293 cells. • 2). Prepare lipid: DNA complexes as follows: • a. Prepare a 10 μg/ml solution of DNA in Opti-MEM without serum that consists of the following ratios of carrier DNA and DNA encoding NanoLuc® fusion. […] of Transfection Carrier DNA, […] of NanoLuc fusion vector DNA and 1 mL of Opti-MEM without phenol red. Mix thoroughly. • b. Add 30 μl of FuGENE HD Transfection Reagent into each milliliter of DNA mixture to form lipid: DNA complex. • c. Mix by inversion 10 times. • d. Incubate at ambient temperature for 20 minutes to allow complexes to form. • 3). In a sterile, conical tube, mix 1 part of lipid:DNA complex with 20 parts of HEK-293 cells in suspension. Mix gently by inversion 5 times. • 4). Dispense cells+lipid: DNA complex into a sterile tissue culture dish and incubate for 22-24 hours.
Each test compound is delivered from the compound source plate to the wells of 384-well white NBS plate by Echo 550.
3. Preparation of Cells with NanoBRET™ Tracer Reagent • 1). Remove medium from dish with transfected HEK-293 cells via aspiration, trypsinize and allow cells to dissociate from the dish. • 2). Neutralize trypsin using medium containing serum and centrifuge at 200× g for 5 minutes to pellet the cells. Adjust the cell density to […] cells/mL in Opti-MEM without phenol red. • 3). Prepare Complete 20× NanoBRET™ Tracer Reagent with Tracer Dilution Buffer. • 4). […]

MOLM14 D835Y cells = assay: MOLM14 D835Y cell viability assay (Cell Titer Glo); type: cell-based

SMILES | IC50 (FLT3) [nM] | IC50 (MOLM14 D835Y cells; 48 hours) [nM] | IC50 (MOLM14 D835Y cells; Homo sapiens, MOLM-14, 48 h) [nM]
COc1cc2ncc(-c3nc(N[C@H]4CNCC[C@@H]4F)c(F)cc3F)n2nc1C(C)(O)C(F)(F)F (single isomer, unassigned) [Compound 77a] | 2 | 8 | –
COc1cc2ncc(-c3nc(N[C@H]4CNC[C@@H]4F)c(F)cc3F)n2nc1C(C)(O)C(F)(F)F (single isomer, unassigned) [Compound 80a] | 1 | 23 | –
COc1cc2ncc(-c3nc(N[C@@H]4CCCNC4)c(F)cc3F)n2nc1C(C)(O)C(F)(F)F (single isomer, unassigned) [Compound 81a] | 5 | 6 | –
COc1cc2ncc(-c3nc(N[C@H]4CNCC[C@@H]4F)c(F)cc3F)n2nc1C1CC2(CCC2)C1 [Compound 10a, 3,5-difluoro-N-((3S,4S)-4-fluoropiperidin-3-yl)-6-(7-methoxy-6-(spiro[3.3]heptan-2-yl)imidazo[1,2-b]pyridazin-3-yl)pyridin-2-amine] | 63 | – | –
COc1cc2ncc(-c3nc(N[C@H]4CNC[C@@H]4F)c(F)cc3F)n2nc1C1CC2(CCC2)C1 [Compound 12a, 3,5-difluoro-N-((3S,4S)-4-fluoropyrrolidin-3-yl)-6-(7-methoxy-6-(spiro[3.3]heptan-2-yl)imidazo[1,2-b]pyridazin-3-yl)pyridin-2-amine] | 13 | – | –
COc1cc2ncc(-c3nc(N[C@H]4CNCC[C@@H]4F)c(F)cc3F)n2nc1C1CCC1 [Compound 15a, 6-(6-cyclobutyl-7-methoxyimidazo[1,2-b]pyridazin-3-yl)-3,5-difluoro-N-((3S,4S)-4-fluoropiperidin-3-yl)pyridin-2-amine] | < 0.5 | – | 18
COc1cc2ncc(-c3nc(N[C@H]4CNCC[C@@H]4F)c(F)cc3F)n2nc1C12CC(C1)C2 [Compound 67a, 6-(6-(bicyclo[1.1.1]pentan-1-yl)-7-methoxyimidazo[1,2-b]pyridazin-3-yl)-3,5-difluoro-N-((3S,4S)-4-fluoropiperidin-3-yl)pyridin-2-amine] | 1 | – | –
